Source: patent US10179194B2, “Self-assembling peptides, peptidomimetics and peptidic conjugates as building blocks for biofabrication and printing” (Agency for Science, Technology and Research, priority 2013, dated 2019)
Peptide text beside a SMILES is read from it.

Experiments:
[1] = Self-assembly into aggregates and fibres in aqueous solution; type: physicochemical
Protocol: It is in some embodiments stable in aqueous solution at physiological conditions at ambient temperature for a period of time in the range from 1 day to 1 month or more. It may in some embodiments be stable in aqueous solution at physiological conditions at 90° C. for at least 1 hour, at least 2 hours, at least 3 hours, at least 4 hours or at least 5 hours An amphiphilic linear sequence of an amphiphilic peptide and/or peptoid including an amphiphilic linear peptide and/or peptoid, is capable of providing a self assembling α-helical fiber in aqueous solution under physiological conditions. The peptides/peptoids (typically 3-7-mers) in the L- or D-form can self assemble into supramolecular helical fibers which are organized into mesh-like structures mimicking biological substances such as collagen. It has previously been observed in X-ray crystallography that peptides of a length of 3 to 6 amino acids with repetitive alanine containing sequences and an acetylated […] take a helical conformation (Hatakeyama, Y, et al, Angew. Chem. Int. Ed. (2009) 8695-8698). Using peptides with an amphiphilic sequence, Ac-LD6 (L), the formation of aggregates has for example been observed already at 0.1 mg/ml. […]

[2] = tested on: Chinese hamster ovary cells
guinea pigs = settings: guinea pig, in vivo
[3] = Stimuli-responsive gelation (minimum gelation concentration); type: physicochemical
Protocol: Ac-LIVAGK-NH2 (SEQ ID NO: 20) forms hydrogels at 20 mg/mL in water, 12 mg/mL in saline, 7.5 mg/mL in PBS, and 10 mg/mL in 10 mM NaOH.(B) The rigidity, as represented by the storage modulus (G′), of 20 mg/mL Ac-LIVAGK-NH2 hydrogels increases by one order of magnitude to 10 kPa when dissolved in normal saline(NaCl) as compared to water at 1 kPa. In phosphate buffered saline (PBS), G′ increases to 40 kPa. The stiffness also increases with peptide concentration. (C) The addition of sodium hydroxide (NaOH) enhances the rigidity of 20 mg/mL Ac-LIVAGK-NH2 (SEQ ID NO: 20) hydrogel from 1 kPa in water to 80 kPa. The rigidity increases with NaOH concentration. (D) Hydrogel droplet arrays of various dimensions can be obtained by mixing equivolumes of peptide solution (such as 10 mg/mL Ac-ILVAGK-NH2)(SEQ ID NO: 20) and PBS containing small molecules. Bioactive moieties can also be encapsulated; 1 μL droplets with green food colouring and 488 nm emission quantum dots, 2 μL droplets with red food colouring and 568 nm emission fluorophore conjugated to a secondary antibody, and 5 μL droplets with methylene blue and DAPI. (E) Hydrogel “noodles” are obtained by extruding 5 mg/mL Ac-ILVAGK-NH2 (SEQ ID NO: 20) solution through a 27 gauge needle into a concentrated salt bath.
• Peptide sequence: Ac-LIVAGD-COOH (SEQ ID NO: 17) • Molecular weight: 629.56 • (1) Temperature Sweep Study for Ac-LD6 (L) (SEQ ID NO : 17): • (a) The peptide mixture was then placed on rheometer lower plate. […]

[4] = tested on: New Zealand White rabbits; assay: Induced disc degeneration rabbit model (injectable therapy); type: in vivo
Protocol: FIG. 14 Evaluation of an injectable therapy in a rabbit model of degenerative disc disease. • (A) In this animal model, three lumbar intervertebral discs between the L3 and L6 vertebrae were punctured and their nucleus pulposus (NP) content aspirated. One month post-injury, two different treatments were injected into the NP space. The first treatment consists of 20 mg/mL of Ac-LIVAGK-NH2 (SEQ ID NO: 20) in PBS and gadolinium-DTPA (Gd-DTPA), a T1 MRI contrast agent. The second therapy consists of labeled donor rabbit NP cells encapsulated in 20 mg/mL of Ac-LIVAGK-NH2 (SEQ ID NO: 20) in PBS. The cells were labeled with FITC-conjugated iron oxide nanoparticles, which are T2 MRI contrastophores. […] In comparison, damaged untreated discs (D) are darker. […] The healthy disc was obtained from animal R245 (disc L2/L3), while the damaged disc was from R334 (L4/L5). The hydrogel treated disc imaged is L3/L4 from R245 and the cell therapy disc is L5/L6 of R328. At higher magnification, faintly fluorescent cells could be observed for discs that received cell therapy.
Induced disc degeneration rabbit model. […]
We designed an injectable therapy wherein our stimuli-responsive peptide Ac-LIVAGK-NH2 (SEQ ID NO: 20) was administered as a low viscosity solution which subsequently gels in situ. This therapy was evaluated in the induced disc degeneration rabbit model. […]

[5] = Rheology of hydrogels, storage modulus G'; type: physicochemical
Protocol: Hydrogel samples were prepared in polydimethysiloxane moulds to obtain approximately 1 mm thick, 8 mm diameter discs. Dynamic strain and oscillatory frequency sweep experiments were carried out using the ARES-G2 Rheometer (TA Instruments, Piscataway, N.J.) with 8 mm titanium parallel plate geometry. The effects of varying several parameters on viscoelastic properties were studied as follows: • (1) Effect of varying concentration • (2) Effect of varying ionic strength of the solution (water vs saline vs PBS) • (3) Effect of varying pH Extrusion from 27 Gauge Needle
Rheology. Hydrogel samples were prepared in polydimethysiloxane moulds to obtain approximately 1 mm thick, 8 mm diameter discs. Dynamic strain and oscillatory frequency sweep experiments were carried out using the ARES-G2 Rheometer (TA Instruments, Piscataway, N.J.) with 8 mm titanium parallel plate geometry.

Ac-LIVAGD-OH [Ac-LD6 (L)]
concentration at which formation of aggregates is observed [1]: 0.1 mg/mL | concentration at which peptide monomers align to form fibrous structures [1]: 1 mg/mL

CC[C@H](C)[C@H](NC(=O)[C@H](CC(C)C)NC(C)=O)C(=O)N[C@H](C(=O)N[C@@H](C)C(=O)NCC(=O)N[C@@H](CCCCN)C(N)=O)C(C)C [Ac-LIVAGK-NH2] (Ac-LIVAGK-NH2)
Breaks SB (chromosome break) [2]: 2 | Breaks TB (chromatid break) [2]: 3 | Cells with aberrations (excluding gaps) [2]: 5 | D (deletion) [2]: 0 | Gaps SG (chromosome gap) [2]: 2 | Inter Chromosomal Rearrangements CR (complex) [2]: 0 | Inter Chromosomal Rearrangements DC (dicentric chromosome) [2]: 0 | Inter Chromosomal Rearrangements QR (quadradial) [2]: 0 | Inter Chromosomal Rearrangements R (ring) [2]: 0 | Inter Chromosomal Rearrangements TR (triradial) [2]: 0 | Other aberrations DM (double minute) [2]: 0 | Other aberrations PV (pulverized) [2]: 0 | mutagenicity (genotoxicity assays) [2]: non-mutagenic | irritation or allergic reactions (guinea pigs): no irritation or allergic reactions | reactions following subsequent immune challenge (guinea pigs): no reactions were observed | systemic signs of toxicity (guinea pigs): did not exhibit any systemic signs of toxicity | concentration at which hydrogels form ([3]; in 10 mM NaOH): 10 mg/mL | concentration at which hydrogels form ([3]; in PBS): 7.5 mg/mL | concentration at which hydrogels form ([3]; in saline): 12 mg/mL | concentration at which hydrogels form ([3]; in water): 20 mg/mL | immune response and tissue integration in histology sections of discs ([4]; 20 mg/mL in PBS with Gd-DTPA, or with labeled donor rabbit NP cells, two month post-treatment): integrated with the tissue and did not elicit an immune response | time to gelation in situ ([4]; approximately 100 μL of 20 mg/mL peptide in PBS injected into a damaged NP): ≤ 5 min | storage modulus (G′) ([5]; 20 mg/mL hydrogel in normal saline (NaCl)): 10 kPa | storage modulus (G′) ([5]; 20 mg/mL hydrogel in phosphate buffered saline (PBS)): 40 kPa | storage modulus (G′) ([5]; 20 mg/mL hydrogel in water): 1 kPa | storage modulus (G′) ([5]; 20 mg/mL hydrogel with addition of sodium hydroxide (NaOH)): 80 kPa
